Measured values taken from PubChem BioAssay AID248 (DTP/NCI, 2004).
“And” between values parts separate entries of the source, which are not always exact repeats. Equal values may be shown once. Toxic doses and inconclusive results are not listed. Cut-off read from the data, not from the text of the source: active = T/C of 150% or more; inactive = T/C below 125%.

System: L1210 leukemia ip in BDF1 mice, survival T/C
Assay: NCI In Vivo Anticancer Drug Screen. Data for tumor model L1210 Leukemia (intraperitoneal) in B6D2F1 (BDF1) mice
Conditions: endpoint: mean survival time, higher = longer survival
Summary of the method: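 Antitumor effect is assessed in tumor-bearing animals. Survival in the compound arm is compared with a vehicle-dosed control arm and expressed as their quotient.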

[1] = dose: 50.0 mg/kg/injection, schedule: Q01DX009 (ip), vehicle: Klucel (hydroxypropylcellulose) (HPC)
[2] = dose: 100.0 mg/kg/injection, schedule: Q01DX009 (ip), vehicle: Klucel (hydroxypropylcellulose) (HPC)
[3] = dose: 200.0 mg/kg/injection, schedule: Q01DX009 (ip), vehicle: Klucel (hydroxypropylcellulose) (HPC)
[4] = dose: 100.0 mg/kg/injection, schedule: Q04DX003 (ip), vehicle: saline with Tween-80
[5] = dose: 100.0 mg/kg/injection, schedule: Q01DX001 (ip), vehicle: Klucel (hydroxypropylcellulose) (HPC)
[6] = dose: 100.0 mg/kg/injection, schedule: Q01DX009 (ip), vehicle: saline with Tween-80
[7] = dose: 100.0 mg/kg/injection, schedule: Q04DX003 (ip), vehicle: Klucel (hydroxypropylcellulose) (HPC)
[8] = dose: 200.0 mg/kg/injection, schedule: Q01DX001 (ip), vehicle: Klucel (hydroxypropylcellulose) (HPC)
[9] = dose: 400.0 mg/kg/injection, schedule: Q01DX001 (ip), vehicle: Klucel (hydroxypropylcellulose) (HPC)
[10] = dose: 100.0 mg/kg/injection, schedule: Q04DX002 (ip), vehicle: Klucel (hydroxypropylcellulose) (HPC)
[11] = dose: 200.0 mg/kg/injection, schedule: Q04DX002 (ip), vehicle: Klucel (hydroxypropylcellulose) (HPC)
[12] = dose: 400.0 mg/kg/injection, schedule: Q04DX002 (ip), vehicle: Klucel (hydroxypropylcellulose) (HPC)
[13] = dose: 100.0 mg/kg/injection, schedule: Q04DX003 (ip), vehicle: saline
[14] = dose: 400.0 mg/kg/injection, schedule: Q04DX003 (ip), vehicle: saline
[15] = dose: 100.0 mg/kg/injection, schedule: Q01DX001 (ip), vehicle: carboxymethylcellulose (CMC)
[16] = dose: 200.0 mg/kg/injection, schedule: Q01DX001 (ip), vehicle: carboxymethylcellulose (CMC)
[17] = dose: 400.0 mg/kg/injection, schedule: Q01DX001 (ip), vehicle: carboxymethylcellulose (CMC)

Measured: T/C

CC1([N+](=O)[O-])COC2(CCCCC2)OC1
inactive: [1] 100 % of control | [2] 96 % of control | [3] 91 % of control

NC(=O)C1C2C=CC(C2)C1C(N)=O (stereo not drawn)
inactive: [4] 96 % of control | dose: 200.0 mg/kg/injection, schedule: Q04DX003 (ip), vehicle: saline with Tween-80 91 % of control | dose: 400.0 mg/kg/injection, schedule: Q04DX003 (ip), vehicle: saline with Tween-80 98 % of control

O=C1C2(Cl)C3(Cl)C4(OCCO4)C4(Cl)C2(Cl)C2(Cl)C1(Cl)C3(Cl)C42Cl (stereo not drawn)
inactive: dose: 50.0 mg/kg/injection, schedule: Q01DX001 (ip), vehicle: saline 100 % of control | dose: 100.0 mg/kg/injection, schedule: Q01DX001 (ip), vehicle: saline 100 % of control | dose: 200.0 mg/kg/injection, schedule: Q01DX001 (ip), vehicle: saline 105 % of control | dose: 400.0 mg/kg/injection, schedule: Q01DX001 (ip), vehicle: saline 96 % of control

CC(C)C(=O)[O][Sn]([c]1ccccc1)([c]1ccccc1)[c]1ccccc1
inactive: dose: 12.5 mg/kg/injection, schedule: Q04DX002 (ip), vehicle: Klucel (hydroxypropylcellulose) (HPC) 97 % of control | dose: 25.0 mg/kg/injection, schedule: Q04DX002 (ip), vehicle: Klucel (hydroxypropylcellulose) (HPC) 93 % of control | dose: 50.0 mg/kg/injection, schedule: Q04DX002 (ip), vehicle: Klucel (hydroxypropylcellulose) (HPC) 93 % of control

CC(C)C1CCC(NC(=O)Nc2ccccc2)CC1 (stereo not drawn)
inactive: dose: 25.0 mg/kg/injection, schedule: Q01DX009 (ip), vehicle: saline with Tween-80 93 % of control | dose: 25.0 mg/kg/injection, schedule: Q04DX003 (ip), vehicle: saline with Tween-80 97 % of control | dose: 50.0 mg/kg/injection, schedule: Q01DX009 (ip), vehicle: saline with Tween-80 95 % of control | dose: 50.0 mg/kg/injection, schedule: Q04DX003 (ip), vehicle: saline with Tween-80 101 % of control | [5] 111 % of control | [6] 88 % of control | [7] 94 % of control | [4] 100 % of control and 106 % of control | [8] 101 % of control | dose: 200.0 mg/kg/injection, schedule: Q04DX003 (ip), vehicle: Klucel (hydroxypropylcellulose) (HPC) 101 % of control | [9] 103 % of control | dose: 400.0 mg/kg/injection, schedule: Q04DX003 (ip), vehicle: Klucel (hydroxypropylcellulose) (HPC) 94 % of control

CC(C)(C)C(=O)NO
inactive: [10] 110 % of control | [11] 90 % of control | [12] 102 % of control

CCCCCCCCCCCC(=O)NC(=S)Nc1ccc(N(C)C)cc1
inactive: [10] 93 % of control | [11] 108 % of control | [12] 90 % of control

Oc1cncc2ccccc12
inactive: [13] 94 % of control | [14] 90 % of control

O=C(NCCCCCCNC(=O)Nc1ccc(C2=NCCCN2)cc1)Nc1ccc(C2=NCCCN2)cc1
inactive: dose: 6.25 mg/kg/injection, schedule: Q01DX Z (ip), vehicle: carboxymethylcellulose (CMC) 97 % of control | dose: 12.5 mg/kg/injection, schedule: Q01DX Z (ip), vehicle: carboxymethylcellulose (CMC) 97 % of control | dose: 25.0 mg/kg/injection, schedule: Q01DX Z (ip), vehicle: carboxymethylcellulose (CMC) 100 % of control

CC1NCCCNCCCNC(C)c2cccc1n2 (stereo not drawn)
inactive: dose: 12.5 mg/kg/injection, schedule: Q04DX002 (ip), vehicle: saline 92 % of control | dose: 25.0 mg/kg/injection, schedule: Q04DX002 (ip), vehicle: saline 89 % of control

CCOC(=O)Nc1cc(NCC(O)CN(C)C)c([N+](=O)[O-])c(N)n1 (stereo not drawn)
inactive: dose: 100.0 mg/kg/injection, schedule: Q01DX001 (ip), vehicle: saline with Tween-80 103 % of control | dose: 200.0 mg/kg/injection, schedule: Q01DX001 (ip), vehicle: saline with Tween-80 94 % of control | dose: 400.0 mg/kg/injection, schedule: Q01DX001 (ip), vehicle: saline with Tween-80 101 % of control

CCCCCCCCCCCCCCCCOc1ccc(NC(N)=S)cc1
inactive: dose: 75.0 mg/kg/injection, schedule: Q04DX003 (ip), vehicle: Klucel (hydroxypropylcellulose) (HPC) 101 % of control | [5] 96 % of control | dose: 150.0 mg/kg/injection, schedule: Q04DX003 (ip), vehicle: Klucel (hydroxypropylcellulose) (HPC) 88 % of control | [8] 97 % of control | dose: 300.0 mg/kg/injection, schedule: Q04DX003 (ip), vehicle: Klucel (hydroxypropylcellulose) (HPC) 89 % of control | [9] 93 % of control

Cc1cccnc1NC(=O)NCCCl
inactive: [15] 101 % of control | [2] 92 % of control | [13] 98 % of control | [16] 103 % of control | [3] 93 % of control | dose: 200.0 mg/kg/injection, schedule: Q04DX003 (ip), vehicle: saline 97 % of control | [17] 103 % of control | [14] 89 % of control

CCCc1cc(C(C)=O)c[n+](C2OC(COC(C)=O)C(OC(C)=O)C(OC(C)=O)C2OC(C)=O)c1 (stereo not drawn)
inactive: dose: 50.0 mg/kg/injection, schedule: Q01DX005 (ip), vehicle: water 97 % of control | dose: 100.0 mg/kg/injection, schedule: Q01DX005 (ip), vehicle: water 97 % of control

C[n+]1c2ccccc2c(-c2c3ccccc3[n+](C)c3ccccc23)c2ccccc21
inactive: dose: 12.5 mg/kg/injection, schedule: Q01DX001 (ip), vehicle: Klucel (hydroxypropylcellulose) (HPC) 102 % of control | dose: 25.0 mg/kg/injection, schedule: Q01DX001 (ip), vehicle: Klucel (hydroxypropylcellulose) (HPC) 98 % of control | dose: 50.0 mg/kg/injection, schedule: Q01DX001 (ip), vehicle: Klucel (hydroxypropylcellulose) (HPC) 98 % of control

COc1ccc(NC(=O)Oc2ccc3ccccc3c2)c(OC)c1
inactive: [10] 97 % of control | [11] 111 % of control | [12] 104 % of control

CCCCCCCCCCCCOB(OCCCCCCCCCCCC)OCCCCCCCCCCCC
inactive: dose: 50.0 mg/kg/injection, schedule: Q01DX001 (ip), vehicle: carboxymethylcellulose (CMC) 96 % of control | [15] 102 % of control | [6] 98 % of control | [16] 94 % of control | [17] 94 % of control

COc1cc2c(cc1OC)C13CCN4CC5=CCOC6CCN2C1C6C5CC43 (stereo not drawn)
inactive: dose: 25.0 mg/kg/injection, schedule: Q04DX003 (ip), vehicle: saline 101 % of control | dose: 50.0 mg/kg/injection, schedule: Q04DX003 (ip), vehicle: saline 109 % of control | [4] 86 % of control | [13] 106 % of control

Cc1ccc(N=C=Nc2ccc(C)cc2)cc1
inactive: dose: 25.0 mg/kg/injection, schedule: Q04DX003 (ip), vehicle: Klucel (hydroxypropylcellulose) (HPC) 105 % of control | dose: 50.0 mg/kg/injection, schedule: Q04DX003 (ip), vehicle: Klucel (hydroxypropylcellulose) (HPC) 97 % of control | [7] 90 % of control

O=C(NCCCl)NC1CCCc2ccccc21 (stereo not drawn)
inactive: dose: 6.25 mg/kg/injection, schedule: Q01DX009 (ip), vehicle: Klucel (hydroxypropylcellulose) (HPC) 95 % of control | dose: 12.5 mg/kg/injection, schedule: Q01DX009 (ip), vehicle: Klucel (hydroxypropylcellulose) (HPC) 94 % of control | dose: 25.0 mg/kg/injection, schedule: Q01DX009 (ip), vehicle: Klucel (hydroxypropylcellulose) (HPC) 90 % of control | [1] 92 % of control | [5] 105 % of control | [8] 91 % of control

CCN(CC)CC#N
inactive: dose: 1.0 mg/kg/injection, schedule: Q01DX009 (ip), vehicle: saline 97 % of control | dose: 2.0 mg/kg/injection, schedule: Q01DX009 (ip), vehicle: saline 99 % of control | dose: 4.0 mg/kg/injection, schedule: Q01DX009 (ip), vehicle: saline 95 % of control | dose: 8.0 mg/kg/injection, schedule: Q01DX009 (ip), vehicle: saline 100 % of control

Cc1ccc(NC(=O)OCCSc2ccc(Cl)cc2)c([N+](=O)[O-])c1
inactive: [10] 99 % of control | [11] 99 % of control | [12] 89 % of control
